Experiments:
[1] = test system: L929 cells; assay: Neutral red cell viability assay of L929 cells treated with TNFα and/or bFGF; assay type: cell-based, murine
Description: In panel A cells were treated with the indicated concentrations of TNFα for 15 hours and were assayed for uptake of neutral red. In panel B cells were untreated (solid bars), treated with 0.5 ng/ml bFGF (dotted bars) or 5.0 ng/ml bFGF (hatched bars) and the indicated concentrations of TNFα for 18 hours. Cell viability was assessed by neutral red assay.
In panel A serum starved L929 cells were untreated or treated for 1 hour at 37° C. with the MEK-1 inhibitor (PD) and then unstimulated or stimulated with bFGF. MAPK activity was measured. In panel B L929 cells were untreated or treated for 1 hour at 37° C. with PD and then were untreated or treated with TNFα alone or in combination with bFGF for 18 hours. Cell viability was assessed by neutral red assay.
Cell lines and culture. L929 cells (ATCC CCL1 were maintained in Dulbecco's modified Eagle's medium with 5% newborn calf serum and 5% bovine calf serum (BCS) supplemented with 100 ug/ml streptomycin and 100 U/ml penicillin. The cells were grown in 10 cm dishes at 37° C. in 7.5% CO2. Cells were made quiescent where indicated by incubation in Dulbecco's modified Eagle's medium and 0.1% bovine serum albumin for 24 h. Recombinant murine TNFα and recombinant human bFGF (147aa) were from R&D Systems, Minneapolis, Minn. Cells were pretreated where indicated with the MEK-1 inhibitor PD#098059 (Parke-Davis Pharmaceutical Corp. Ann Arbor, Mich.) for 1 h at 37° C. Cells were stimulated by incubation with the indicated cytokine or growth factor for various times at 37° C. Stimulation was stopped by rinsing the plates twice with ice cold phosphate buffered saline (PBS) and lysing the cells in the appropriate lysis buffer. Cells were scraped from the plates and nuclei were pelleted for 10 min at 14,000 RPM in a microcentrifuge. JNK assay. JNK activity was measured using a solid state kinase assay in which glutathione S-transferase-c-Jun (1-79) (GST-JUN) cound to glutathione-Sepharose 4B beads was used to affinity purify JNK and then JNK activity was measured in an in vitro kinase assay using the sepharose bound GST-Jun as a substrate (Hibi, M., et al. (1993) Genes & Development 7:2135-2148). Stimulated or unstimulated cells were lysed in 0.5% Nonidet P-40, 20 mM HEPES pH 7.2, 100 mM NaCl, 2 mM dithiothreitol, 1 mM EDTA, 1.0 mM phenylmethylsulfonylfluoride, 1 μg/ml aprotinin and the nuclei pelleted. Lysates were normalized for protein content. JNK was affinity purified from 50-100 μg of cell lysate by the addition of 10 ul of GST-Jun sepharose slurry (2 μg GST-Jun). Binding to GST-Jun efficiently isolates the two major forms of JNK (p45 and p55) and under the conditions used JNK isolation was linear for 10-250 μg of cell lysate. The lysates were rotated at 4° C. for 1-3 h. Beads were washed twice in lysis buffer and then twice in PAN (10 mM PIPES, pH 7.0, 100 mM NaCl, 21 μg/ml aprotinin). Kinase reactions were carried out at 30° C. for 15 min in 20 mM Hepes pH 7.2, 20 mM β-glycerophosphate, 10 mM p-nitrophenyl phosphate, 10 mM MgCl2, 1 mM dithiothreitol, 50 μm sodium vanadate, 10 μCi γ^32P-ATP 4300 Ci/mmole. The kinase reaction was linear from 0-30 min. MAPK Assay MAPK activity was measured exactly as described previously (Gardner, A. M., et al. (1994) Meth. Enzymol. 238:258-270) with the exception that MonoQ FPLC fractionation was replaced by step elution from a DEAE-Sephacel column using 0.5 M NaCl in loading buffer. The eluate was assayed in triplicate using the epidermal growth factor receptor 662-681 peptide (EGFR662-681) as a selective substrate for MAPK activity (Heasley, L. E., et al. (1994) American Journal of Physiology (Renal Fluid Electrolyte Physiol. 36) 267:F366-F373). […]

[2] = test system: C-Raf; assay: Raf activation assay in L929 cells, C-Raf; assay type: cell-based, murine

## bFGF: recombinant human bFGF (147aa), basic fibroblast growth factor
[1]; L929 cells
  effect on TNFα-mediated cell death: effective at blocking
[1]; bFGF alone
  cell number in the absence of TNFα: did not measurably increase cell number
[2]
  activation of C-Raf (phosphorylation of kinase-inactive MEK-1): activation of both B-Raf and C-Raf

## TNFα
[1]; 1 ng/ml TNFα
  time required to induce a similar level of L929 cell death: 24 to 48 h
[1]; 10 ng/ml TNFα, 15 hr
  L929 cells being apoptotic: greater than 40%
[2]
  activation of C-Raf (phosphorylation of kinase-inactive MEK-1): does not significantly activate either isoform of Raf

From patent US20080201790A1, “Method and product for regulating cell responsiveness to external signals” (priority 1993, published 2008)
